Usually IC50 stands for the point on the concentration scale where inhibition reaches its midpoint. A high value points to a need for much substance. As a reminder, the EC50 is the concentration that produces a half-maximal response.

Results on one compound are retold here after paper PMC5982655, “Interaction of the New Monofunctional Anticancer Agent Phenanthriplatin With Transporters for Organic Cations” (Frontiers in Chemistry, 2018).

Molecules are shown by their SMILES. “Also recorded” adds a separate entry of the source.

In one test the target is T1, mOCT1 (Mus musculus, UniProt O08966).
T1 construct: expressed in transfected cells
T1 sequence (O08966 1-556): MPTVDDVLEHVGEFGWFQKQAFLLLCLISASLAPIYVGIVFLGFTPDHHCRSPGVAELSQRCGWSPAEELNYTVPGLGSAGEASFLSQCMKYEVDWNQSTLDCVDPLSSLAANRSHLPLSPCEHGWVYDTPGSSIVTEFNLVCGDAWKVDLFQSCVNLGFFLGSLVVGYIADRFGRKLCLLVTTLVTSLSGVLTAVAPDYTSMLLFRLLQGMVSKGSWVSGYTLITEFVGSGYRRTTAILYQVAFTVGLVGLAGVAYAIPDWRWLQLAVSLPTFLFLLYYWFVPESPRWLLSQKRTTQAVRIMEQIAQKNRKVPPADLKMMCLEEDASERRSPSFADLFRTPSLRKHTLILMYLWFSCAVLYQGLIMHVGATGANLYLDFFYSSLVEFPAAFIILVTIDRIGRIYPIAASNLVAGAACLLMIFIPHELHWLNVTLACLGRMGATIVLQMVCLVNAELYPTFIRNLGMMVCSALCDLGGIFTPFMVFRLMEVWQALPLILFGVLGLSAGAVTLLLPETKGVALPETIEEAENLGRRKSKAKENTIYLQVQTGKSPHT
In words: Inhibition of ASP+ uptake in HEK 293 cells expressing mOCT1. The class given is cell-based, murine. The conditions noted are these: HEK 293 mOCT1, 1 μM ASP+. As for the experimental part: (§1) The interaction of phenanthriplatin with transporters for organic cations (OCT1-3, MATE1, and MATE2K) was investigated by measuring its effects on the uptake of the fluorescent organic cation 4-(4-dimethylamino)styryl-N-methylpyridinium (ASP^+). Microfluorometric measurements of ASP^+ uptake were performed with a fluorescence plate reader (Infinity 200, Tecan, Crailsheim, Germany; excitation at 465 nm, emission at 590 nm) as described previously for cultured HEK 293 cells (Wilde et al., [2009]). Before measurements, the culture medium in the wells of the 96 well microtiter plate containing HEK 293 cells was replaced by a HCO3- -free Ringer-like solution containing (in mM) NaCl 145, K2HPO4 1.6, KH2PO4 0.4, D-glucose 5, MgCl2 1, calcium gluconate 1.3, and pH adjusted to 7.4. Fluorescence was measured dynamically at 37°C in each well before and after ASP^+ addition to HCO3- -free Ringer-like solution, alone or together with increasing phenanthriplatin concentrations, and plotted versus time. ASP^+ (final concentration 1 or 10 μM for experiments with OCTs or MATEs, respectively) was added after the third sampling interval. Emission from the complete area of the well bottom was analyzed four times and averaged for each well. […] Background fluorescence was measured for each plate in wells with identical solutions containing no cells and subtracted from each well containing cells. […]

The target in the next test is T2, hMATE1 (Homo sapiens, UniProt Q96FL8).
T2 construct: expressed in transfected cells
T2 sequence (Q96FL8 1-570): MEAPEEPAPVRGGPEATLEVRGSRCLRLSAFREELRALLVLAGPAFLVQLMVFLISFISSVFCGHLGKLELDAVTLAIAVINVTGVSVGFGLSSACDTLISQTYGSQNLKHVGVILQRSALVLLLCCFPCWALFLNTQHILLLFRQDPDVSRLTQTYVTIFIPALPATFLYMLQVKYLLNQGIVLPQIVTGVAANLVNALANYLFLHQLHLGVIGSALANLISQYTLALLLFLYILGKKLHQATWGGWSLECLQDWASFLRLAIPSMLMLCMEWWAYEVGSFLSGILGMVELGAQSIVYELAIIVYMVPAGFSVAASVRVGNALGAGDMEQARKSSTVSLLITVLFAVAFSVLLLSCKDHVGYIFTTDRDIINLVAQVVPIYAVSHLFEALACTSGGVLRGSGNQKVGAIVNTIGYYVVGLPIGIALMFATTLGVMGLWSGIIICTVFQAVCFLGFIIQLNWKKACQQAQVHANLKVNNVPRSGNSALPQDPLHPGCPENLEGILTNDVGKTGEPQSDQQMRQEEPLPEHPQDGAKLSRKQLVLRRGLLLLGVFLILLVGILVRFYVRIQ
As to the kind of experiment: Inhibition of ASP+ uptake in HEK 293 cells expressing hMATE1. The format is cell-based. The note with it: HEK 293 hMATE1, 10 μM ASP+. As for the experimental part:
The interaction of phenanthriplatin with transporters for organic cations (OCT1-3, MATE1, and MATE2K) was investigated by measuring its effects on the uptake of the fluorescent organic cation 4-(4-dimethylamino)styryl-N-methylpyridinium (ASP^+). Microfluorometric measurements of ASP^+ uptake were performed with a fluorescence plate reader (Infinity 200, Tecan, Crailsheim, Germany; excitation at 465 nm, emission at 590 nm) as described previously for cultured HEK 293 cells (Wilde et al., [2009]). Before measurements, the culture medium in the wells of the 96 well microtiter plate containing HEK 293 cells was replaced by a HCO3- -free Ringer-like solution containing (in mM) NaCl 145, K2HPO4 1.6, KH2PO4 0.4, D-glucose 5, MgCl2 1, calcium gluconate 1.3, and pH adjusted to 7.4. Fluorescence was measured dynamically at 37°C in each well before and after ASP^+ addition to HCO3- -free Ringer-like solution, alone or together with increasing phenanthriplatin concentrations, and plotted versus time. ASP^+ (final concentration 1 or 10 μM for experiments with OCTs or MATEs, respectively) was added after the third sampling interval. Emission from the complete area of the well bottom was analyzed four times and averaged for each well. […] Background fluorescence was measured for each plate in wells with identical solutions containing no cells and subtracted from each well containing cells. Experiments were performed with cells from one passage of the same day with controls and test replicates in the same plate.
(§2) Data are presented as mean values ± SEM, with (n) referring to the number of wells. IC50 values defined as the concentration of platinum agent required to inhibit uptake of ASP^+ by 50% and EC50 values used to assess cell viability were obtained by sigmoidal concentration-response curve fitting using GraphPad Prism, Version 5.3 (GraphPad Software, San Diego, USA). […] For multiple comparisons, ANOVA with Bonferroni post-test was used. A P-value < 0.05 was considered statistically significant.

The next test concerns the target T3, hMATE2K (Homo sapiens, UniProt Q86VL8).
T3 construct: expressed in transfected cells
As to the kind of experiment: Inhibition of ASP+ uptake in HEK 293 cells expressing hMATE2K. The format is cell-based. The conditions noted are these: HEK 293 hMATE2K, 10 μM ASP+. On the procedure: as §1

The next test relates to Ctr1^+/+ MEFs. In words: MTT cell viability, Ctr1+/+ MEFs. The format is cell-based, mouse. As for the experimental part:
(§3) A modified 3-(4,5-dimethylthiazol-2-yl)-2,5-diphenyltetrazolium bromide (MTT) assay (Mosmann, [1983]) was used to test the chemosensitivity of cells to phenanthriplatin and, in some experiments, to cisplatin by determining the glycolysis rate via the reduction of the yellow tetrazolium salt MTT to a purple formazan dye, as previously described (Wehe et al., [2014]). Briefly, after growing for 24 h in the incubator, cells expressing or not hOCT2, hMATE1, hMATE2 or Ctr1 were treated for 10 min with platinum derivatives. Control cells were incubated with drug-free complete cell culture medium. Afterwards, the medium was carefully removed and replaced by 200 μL of fresh complete cell culture medium. After incubation for another 24 h, 10 μL of MTT solution containing 5 mg/mL of the dye were added to each well, and the cells were again incubated for 3 h. The medium was then removed and 100 μL of lysis buffer containing 10% (w/v) sodium dodecyl sulfate and 40% (v/v) dimethylformamide was added to each well. The plates were shaken for 10 min to destroy the cell structure and dissolve the blue formazan dye (Furchert et al., [2007]; Wehe et al., [2014]). Finally, the absorbance was measured at 590 nm using an automated microtiter plate reader (Infinite M200; Tecan, Männedorf, Switzerland). The percentage of viable cells in the untreated controls was compared to that for the various treatments. Experiments carried out with DAOY and UW228 cells followed a similar protocol except that these cells were incubated for 24 h with phenanthriplatin.

The test system of a further test is Ctr1^−/− MEFs. As to the kind of experiment: MTT cell viability, Ctr1-/- MEFs. The class given is cell-based, mouse. As for the experimental part:
as §3

In the next test the test system is UW228 cells. As to the kind of experiment: MTT cell viability, UW228 medulloblastoma cells. The format is cell-based. As for the experimental part: as §3, §2

T3 sequence (Q86VL8 1-566 isoform Q86VL8-3): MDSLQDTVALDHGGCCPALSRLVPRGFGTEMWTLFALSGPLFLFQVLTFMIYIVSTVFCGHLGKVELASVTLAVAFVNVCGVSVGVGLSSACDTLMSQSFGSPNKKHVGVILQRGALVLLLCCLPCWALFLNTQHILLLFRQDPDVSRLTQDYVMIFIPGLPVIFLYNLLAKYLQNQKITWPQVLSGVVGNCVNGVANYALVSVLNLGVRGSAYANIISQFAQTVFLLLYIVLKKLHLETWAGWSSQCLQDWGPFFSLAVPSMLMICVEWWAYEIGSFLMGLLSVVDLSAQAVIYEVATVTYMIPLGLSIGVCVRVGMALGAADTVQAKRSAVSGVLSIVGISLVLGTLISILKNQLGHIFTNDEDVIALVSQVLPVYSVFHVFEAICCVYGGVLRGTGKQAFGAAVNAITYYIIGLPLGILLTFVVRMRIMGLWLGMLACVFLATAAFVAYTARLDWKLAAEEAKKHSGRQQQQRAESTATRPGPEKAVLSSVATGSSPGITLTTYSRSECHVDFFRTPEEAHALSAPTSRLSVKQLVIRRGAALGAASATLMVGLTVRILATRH

For the compound `N.N.[Cl][Pt+].c1ccc2c(c1)cnc1ccccc12` [phenanthriplatin, cis-[Pt(NH3)2Cl(phenanthridine)]^+], the IC50 on mOCT1 was determined as 17 µM; against hMATE1 it was 101 µM; against hMATE2K, 57 µM. Moreover, the “logIC50 (logEC50) ± SEM for inhibition of ASP+ uptake” value is given as −4.77 ± 0.22 at mOCT1, −3.99 ± 0.21 at hMATE1 and −4.24 ± 0.07 on hMATE2K. In addition, the “Cell viability (MTT)” value was “toxic” in the test on Ctr1^+/+ MEFs (1 mM, 10 min); “did not change the cell viability” in the test on Ctr1^+/+ MEFs (lower concentrations (<1 mM)); “toxic; also recorded: still present in Ctr1^−/− MEFs even though at lower level than in Ctr1^+/+ MEFs” with Ctr1^−/− MEFs (1 mM, 10 min); “did not change the cell viability” with Ctr1^−/− MEFs (lower concentrations (<1 mM)). In the test on UW228 cells (UW228, 24 h, 3 μM phenanthriplatin + 10-fold higher cimetidine), the “Protection from phenanthriplatin toxicity by cimetidine (cell viability, MTT)” value was “not in UW228 cells”. In the test on UW228 cells (UW228, 24 h incubation, MTT), this compound returned an EC50 of 2.8 µM. Further, the “logEC50 ± SEM for viability” value in the test on UW228 cells (UW228, 24 h incubation, MTT) is −5.55 ± 0.03.
